What is called EC50 is the concentration at which the effect is half-maximal.

What all share (format): cell-based
The target of one test is T1, P2Y1 (Homo sapiens, UniProt P47900).
T1 construct: expressed in transfected cells; host or cells: human astrocytoma 1321N1 cells
Put plainly: Intracellular calcium mobilization (FLIPR, Fluo-3 AM) in 1321N1 cells expressing P2Y1. The note with it: 1321N1 cells expressing P2Y1, intracellular calcium. The method, then:
(§1) Human astrocytoma (1321N1) cells expressing P2Y1, P2Y2, P2Y4, and P2Y6 were grown to confluency in 96-well plates. Cells were loaded with a solution of Fluo-3 AM (2.5 μM final concentration) in an assay buffer consisting of 10 mM KCl, 118 mM NaCl, 2.5 mM CaCl2, 1 mM MgCl2, 20 mM HEPES, 10 mM glucose, pH 7.4. After a 60-minute incubation with Fluo-3 AM at 25° C., cells were washed and stimulated with serially diluted concentrations of compounds uridine 5′-diphosphate (UDP), P^1, P^3-(diuridine 5′-)triphosphate (UP3U) or P^1-(2′,3′-benzylacetal uridine 5′-)P^3-(uridine 5′-)triphosphate (mono-benzylacetal UP3U). Intracellular calcium levels were monitored in each well simultaneously by measuring the changes in fluorescence intensity using the FLIPR (Molecular Devices Corp., Sunnyvale, Calif.). Values for compounds UDP, UP3U, and mono-benzylacetal UP3U in Table 1 are presented as EC50 values corresponding to the concentration of an agonist that produces 50% of the maximum possible response.
In general terms: Calcium assays in cells follow changes in intracellular calcium, usually with a dye or a luminescent sensor.

The target in the next test is T2, P2Y2 (Homo sapiens, UniProt P41231).
T2 construct: expressed in transfected cells; host or cells: human astrocytoma 1321N1 cells
Put plainly: Intracellular calcium mobilization (FLIPR, Fluo-3 AM) in 1321N1 cells expressing P2Y2. The note with it: 1321N1 cells expressing P2Y2, intracellular calcium. The method, then:
as §1

A further test addresses T3, P2Y4 (Homo sapiens, UniProt P51582).
T3 construct: expressed in transfected cells; host or cells: human astrocytoma 1321N1 cells
Put plainly: Intracellular calcium mobilization (FLIPR, Fluo-3 AM) in 1321N1 cells expressing P2Y4. To be noted: 1321N1 cells expressing P2Y4, intracellular calcium. The method, then:
as §1

Another test addresses T4, P2Y6 (Homo sapiens, UniProt Q15077).
T4 construct: expressed in transfected cells; host or cells: human astrocytoma 1321N1 cells
Put plainly: Intracellular calcium mobilization (FLIPR, Fluo-3 AM) in 1321N1 cells expressing P2Y6. The note with it: 1321N1 cells expressing P2Y6, intracellular calcium. How it is done: as §1

Each structure is given as a SMILES string. Bounds are passed on as bounds.

T3 sequence (P51582 whole entry, species assumed): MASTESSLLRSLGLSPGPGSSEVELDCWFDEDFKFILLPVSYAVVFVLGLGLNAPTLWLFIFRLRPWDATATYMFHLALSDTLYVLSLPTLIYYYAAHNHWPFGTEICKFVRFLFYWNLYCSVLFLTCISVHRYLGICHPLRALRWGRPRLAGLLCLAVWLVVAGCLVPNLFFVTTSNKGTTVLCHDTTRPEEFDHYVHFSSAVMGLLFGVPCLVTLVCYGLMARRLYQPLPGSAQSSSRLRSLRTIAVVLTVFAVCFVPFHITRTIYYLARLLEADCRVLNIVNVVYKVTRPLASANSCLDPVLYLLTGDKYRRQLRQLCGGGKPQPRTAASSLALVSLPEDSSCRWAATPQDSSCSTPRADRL
T2 sequence (P41231 whole entry, species assumed): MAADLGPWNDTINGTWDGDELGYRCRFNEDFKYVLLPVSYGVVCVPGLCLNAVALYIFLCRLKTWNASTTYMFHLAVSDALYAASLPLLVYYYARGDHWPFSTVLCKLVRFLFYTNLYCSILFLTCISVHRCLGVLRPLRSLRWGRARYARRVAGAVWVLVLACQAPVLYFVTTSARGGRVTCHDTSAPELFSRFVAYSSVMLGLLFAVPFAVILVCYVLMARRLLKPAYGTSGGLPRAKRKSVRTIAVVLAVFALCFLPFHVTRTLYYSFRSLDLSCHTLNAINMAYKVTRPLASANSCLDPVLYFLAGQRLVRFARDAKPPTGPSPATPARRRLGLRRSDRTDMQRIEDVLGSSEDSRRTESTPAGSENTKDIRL
T4 sequence (Q15077 whole entry, species assumed): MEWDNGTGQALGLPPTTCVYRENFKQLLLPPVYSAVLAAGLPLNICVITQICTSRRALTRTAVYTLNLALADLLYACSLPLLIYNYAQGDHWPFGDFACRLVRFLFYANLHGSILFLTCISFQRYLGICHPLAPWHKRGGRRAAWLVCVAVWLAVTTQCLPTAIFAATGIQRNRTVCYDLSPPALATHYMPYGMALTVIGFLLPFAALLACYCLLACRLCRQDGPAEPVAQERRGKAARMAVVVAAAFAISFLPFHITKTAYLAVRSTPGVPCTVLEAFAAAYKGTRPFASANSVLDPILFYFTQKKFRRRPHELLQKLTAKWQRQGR
T1 sequence (P47900 whole entry, species assumed): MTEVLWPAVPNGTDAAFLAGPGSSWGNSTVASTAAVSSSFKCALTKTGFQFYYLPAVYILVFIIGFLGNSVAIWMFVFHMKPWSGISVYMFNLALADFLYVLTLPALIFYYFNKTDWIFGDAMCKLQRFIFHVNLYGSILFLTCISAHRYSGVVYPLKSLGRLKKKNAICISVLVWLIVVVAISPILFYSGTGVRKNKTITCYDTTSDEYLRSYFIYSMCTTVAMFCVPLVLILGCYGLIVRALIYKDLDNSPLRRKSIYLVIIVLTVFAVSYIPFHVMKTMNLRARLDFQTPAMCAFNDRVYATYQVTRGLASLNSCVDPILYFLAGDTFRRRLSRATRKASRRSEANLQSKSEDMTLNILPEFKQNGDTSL

Turning to `O=c1ccn([C@@H]2O[C@H](COP(=O)(O)OP(=O)(O)O)[C@@H](O)[C@H]2O)c(=O)[nH]1` [UDP, uridine 5′-diphosphate], the concentration giving a half-maximal response (EC50) is over 100 µM on P2Y1, 4.2 µM at P2Y2, 9.48 µM at P2Y4 and 0.5 µM at P2Y6.

Turning to `O=c1ccn([C@@H]2O[C@H](COP(=O)(O)OP(=O)(O)OP(=O)(O)OC[C@H]3O[C@@H](n4ccc(=O)[nH]c4=O)[C@H](O)[C@@H]3O)[C@@H](O)[C@H]2O)c(=O)[nH]1` [UP3U, P^1, P^3-(diuridine 5′-)triphosphate], the EC50 is over 100 µM on P2Y1, 13 µM at P2Y2, over 100 µM at P2Y4 and 0.92 µM on P2Y6.

Consider `O=c1ccn([C@@H]2O[C@H](COP(=O)(O)OP(=O)(O)OP(=O)(O)OC[C@@H]3O[C@H](n4ccc(=O)[nH]c4=O)C4OC(Cc5ccccc5)OC43)C(O)C2O)c(=O)[nH]1` (stereo partly drawn) [mono-benzylacetal UP3U, P^1-(2′,3′-benzylacetaluridine 5′-)P^3-(uridine 5′-)triphosphate], for which the half-maximal effective concentration (EC50) was over 100 µM on P2Y1, over 100 µM at P2Y2, over 100 µM at P2Y4 and 0.14 µM on P2Y6.
